From patent US12503711B2, “Method of producing and processing diamines to a diamine free base using a carbonate intermediate and an engineered microorganism” (Genomatica, Inc., priority 2014, dated 2025)
Several values for one entry are separate records, joined by “and”; a condition that tells them apart may be missing. Equal values may be shown once. Read-outs that look alike come from different tables or passages of the source. One block for each molecule: values may come before it.

Key:
[1] = water solubility of the solvent used, cited from earlier work
[2] = Solvent extraction of HMD from aqueous feed (recovery, distribution coefficient, selectivity); assay type: physicochemical; details: for available free base HMD extracted: 1:1 solvent to feed ratio
Experimental: The example describes the solvent extraction of HMD from the CO2 stripped solution prepared in Example 3 above as well as extracting HMD from an aqueous solution without pH adjustment as a control for solvent performance. The following protocol was used in this example:
The pH of the aqueous feed was measured. In a 50 mL falcon tube, 20 g of solvent was mixed with 20 g of feed. This combination was further aggressively mixed in the falcon tube for 5 minutes and vortexed for 1 minute. The tube with the mixed solvent and feed was allowed to settle until phase separation was complete. The volume of the bottom, aqueous layer was recorded. A sample of the top layer was carefully pipetted out the top layer. A sample the bottom layer was also obtained and the pH of the bottom layer measured. The recovery, distribution coefficients and selectivity based on mass balance were calculated.
The extraction data for three solvents extracting HMD from water are set out in Table 4-1.

[3] = HMD/CO2 pH equilibrium under changing conditions (CO2 sparge, air sparge, heat); assay type: physicochemical; details: for pH (temp. in ° C.): 10% w/w aqueous HMD solution
Experimental: This experiment illustrates HMD/CO2 pH equilibrium under changing conditions. In this example, a 10% w/w aqueous HMD solution was prepared (70% HMD purchased from Sigma Aldrich). The HMD solution was heated to 30° C. and initial pH recorded. Next, CO2 (approximately 98% pure) was bubbled into the solution for 60 min while monitoring pH. The CO2 sparge was stopped. Air was sparged into solution for 30 min while monitoring pH. […] The pH was measured by sampling 3 mL to a falcon tube and cooling to 30° C. […] The solution was cooled to 30° C. and a final pH recorded. The measured pH values are plotted in Graphs 1-1, 1-2 and 1-3, below. It was noted that the temperature probe on pH meter was reading 44.4° C. at […]. and cooled back down to 30° C. by the end of the 60 min. […] This temperature increase can also account for the nonlinearity in FIG. 27-29 because pH decreases with increasing temperature.
Extraction should be possible at this pH. Aeration during fermentation may be able to strip off some of the dissolved CO2.

[4] = Simulated fermentation: CO2 and HMD fed into MM9 solution, pH monitored; assay type: physicochemical; details: average rate 3.31 g/L/hr
Source text: This example reports the results of a simulated fermentation process. Briefly, CO2 (approximately 98% pure) and HMD (70% HMD from Sigma Aldrich) were fed into an MM9 solution that had the following composition: • 0.68% (6.8 g/L) Disodium phosphate Na2HPO4 • 0.3% (3 g/L) Monopotassium phosphate KH2PO4 • 0.15%(1.5 g/L) Ammonium chloride NH4Cl • 0.1% (1 g/L) Ammonium sulfate (NH4)2SO4 • 0.05% (0.5 g/L) Sodium chloride NaCl
The measured pH of the solution and concentration of HMD added over time are set out in FIG. 30.
This feed rate used in this example corresponds to an average rate of 3.31 g/L/hr (a reasonable production rate in an industrial fermentation process). The final titer and feed concentration of HMD was confirmed by LCMS. The HMD and CO2 reach a dynamic equilibrium around pH 8.5. As more HMD is added, more CO2 is absorbed. The simulated HMD:CO2 ratio is 1.95 for pH=8.53. […] FIGS. 31 and 32 illustrate the relative concentration of species as a function of pH for HMD and H2CO3, respectively.
At pH 8.5 (dashed, black line) the major species in solution are the diprotonated HMD and bicarbonate. A minority presence of HMD-carbamate may be present as well.

[5] = Regeneration of HMD free base from CO2-adjusted MM9 solution by air sparge and reflux; assay type: physicochemical; details: for CO2:HMD ratio: based on calculation from pH
Experimental: A 250 mL four-neck flask was fitted with a condenser, temperature probe, and air sparge needle. The system was open to air through the top of the condenser. The feed was an aqueous HMD solution in MM9 where pH was adjusted to 8.68 with CO2. The feed solution was analyzed for HMD concentration by LCMS and the pH was measured. The solution was sparged with air and refluxed at 85° C. for three hours. The resulting solution's pH was taken and the concentration of HMD measured by LCMS.
The concentration increased slightly as some water escaped through the condenser and the solution was concentrated. The fraction of HMD in free base form at pH 11.26 is 57%.

[6] = HMD in DI water, [HMD] = 835 mM, 20 g solvent : 20 g feed
[7] = HMD in DI water, [HMD] = 835 mM, bottom aqueous layer after extraction, 20 g solvent : 20 g feed
[8] = HMD in deionized (DI) water, [HMD] = 835 mM, aqueous feed before extraction

SMILES: CCCCCCO [1-hexanol]
% Solubility ([1]; Table 4-1): 0.59% | % Solubility ([1]; Table 4-2): 0.59%

SMILES: OC1CCCCC1 [Cyclohexanol]
% water in extract [2, 6]: 16.65% | pH after [2, 7]: 12.36 | pH before [2, 8]: 12.70

pH restored by air and heat ([3]; 10% w/w aqueous HMD solution after 60 min CO2 bubbling, then air sparge and heating to 80-88° C, pH read at 30° C): 11.02 | pH (temp. in ° C.) ([3]; Heated to 80° C. for 30 min. w/ sparge, sample cooled to 30 °C): 10.49 | pH (temp. in ° C.) ([3]; Heated to 88° C. for 15 min. w/ sparge, pH at 22.5 °C): 11.02 | pH (temp. in ° C.) ([3]; Heated to 88° C. for 15 min. w/ sparge, pH at 30 °C): 10.76 | pH (temp. in ° C.) ([3]; House air sparge for 30 min. at 30° C., pH at 30 °C): 8.23 | pH (temp. in ° C.) ([3]; Initial conditions, pH at 30 °C): 12.25 | pH (temp. in ° C.) ([3]; Sat open to air over night, pH at 20.6 °C): 10.78 | pH (temp. in ° C.) ([3]; Sparge CO2 for 60 min. at 30° C., pH at 30 °C): 7.96 | pH of dynamic equilibrium of HMD and CO2 [4]: ~8.5 | pH ([5]; Feed stream: HMD in MM9, pH adjusted with CO2, @ 21.7° C.): 8.68 @ | CO2:HMD ratio ([5]; Feed stream): 1.91 | pH ([5]; Product stream after air sparge and reflux at 85° C. for three hours, @ 23.5° C.): 11.26 @ | CO2:HMD ratio ([5]; Product stream): 0.277 | fraction of HMD in free base form ([5]; at pH 11.26): 57% | pH after CO2 stripping ([5]; feed pH 8.68 in MM9, air sparge, reflux at 85° C for three hours): 11.26 | available free base HMD extracted ([2]; solvent 1-hexanol): approximately 43% | available free base HMD extracted ([2]; solvent hexane): about 7% | free base HMD available, based on the pH before extraction ([2]; stripped solution from Example 3): 60%
SMILES: NCCCCCCN [HMD, Hexamethylenediamine]

SMILES: CCCCCC [Hexane]
% water in extract [2]: <0.001% | pH after [2]: 12.54 and 11.42 | pH before [2]: 12.55 and 11.48 | % Solubility ([1]; Table 4-1): 9.4 × 10^−4%

% water in extract [2, 6]: 9.08% | pH after [2, 7]: 12.16 | pH before [2, 8]: 12.70
SMILES: CC(C)CCO [Isopentanol]
% Solubility ([1]; Table 4-1): 2.8%
